Data on ten substances can be found in patent publication US11613750B2, “Methods of reducing virus molecule levels” (priority 2019, dated 2023).

For data set [1], the system named is HBsAg. The conditions noted are these: HepG2.2.15 cells; for EC50: read-out: EC50, Extracell. HBsAg reduction. On the procedure:
(§1) Cell viability was assessed by ATP levels determined using the CellTiter-Glo reagent and the results normalized to the level in mock-treated cells. HBsAg levels were quantified using ELISA and the data normalized to the level in the mock-treated cells.
The cellular proteins GRP78/BIP, SRSF1, HNRNPA2B1, RPLP1, and RPLP2 were identified as having roles in HBV replication and infection. Various siRNAs and combinations thereof targeting the RNAs encoding these proteins were contacted with HepG2.2.15 cells at a final concentration of 7.5 nM.
The EC50 values of several siRNAs and combinations of siRNAs targeting HNRNPA2B1, GRP78, RPLP1, RPLP2, and/or SRSF1 were determined with respect to the ability to reduce HBsAg levels in HepG2.2.15 cells.
(§2) The ability of siRNAs targeting host factors that then results in the reduced production of multiple HBV molecules was evaluated by quantifying the amount of HBsAg, HBeAg, and Core protein produced by HepG2.2.15 cells after contacting with 10 nM of siRNAs that target HNRNPA2B1, GRP78, RPLP1, RPLP2, and SRSF1. We also contacted the cells with 5 nM of each set of siRNAs that targets both RPLP1 and RPLP2. The level of HBsAg, HBeAg, and Core were all determined using ELISAs.
(§3) The library of siRNAs of Example A5 were tested for the reduction of HBsAg secreted by HepG2.2.15 cells and in HBV virions.

Data set [2] has as its system HepG2.2.15 cells. The experiment in a line: HepG2.2.15 cell viability, CellTiter-Glo. The note with it: for CC50: read-out: CC50, HepG2.2.15 cell viability, highest concentration tested 80 nM. The method, then:
as §1
The effects on cell viability were quantified using the CellTiter-Glo reagent. All data were normalized to the amount of protein produced by mock-treated cells.
as §3

Data set [3] has as its system HBeAg. The note with it: for HBeAg reduction HepG2.2.15 cells: 10 nM siRNA transfected into cells. The method, then:
HBeAg in the cell culture media was assessed using ELISAs.
as §2, §3

Data set [4] has as its system RPLP2 mRNA. The experiment in a line: Target mRNA reduction by RT-qPCR in HepG2.2.15 cells. Type of data set: cell-based, human. The note with it: 10 nM siRNA. An excerpt: The siRNAs identified as described in Example A6 should function by a mechanism that includes being loaded in the RISC complex to cleave the cognate mRNA, leading to the degradation of the mRNA. To examine whether the siRNAs are effective in reducing the target mRNA, we used reverse transcription coupled with quantitative polymerase chain reaction (RT-qPCR) to assess the level of the target mRNA in HepG2.2.15 cells. All 32 siRNAs described in Table 2 reduced the mRNA by more than 75% (Table 3).

Data set [5] relates to RPLP2 protein. Briefly: Target protein reduction by Western blot in HepG2.2.15 cells. The class given is cell-based, human. The note with it: 10 nM siRNA, 72 h. The method, then: The host factors likely function in viral infection as proteins. Therefore, we determined whether the siRNAs could decrease the amounts of the target protein. Cell transfected with 10 nM of each siRNA for 72 h were lysed and the target proteins identified using Western blots probed with target-specific antibodies. The effective siRNAs described in Table 3 reduced the levels of the proteins by between 28 and 92% of the mock-treated samples. The reduction in the proteins is less than the reduction of the target mRNA, likely due to the proteins have prolonged half-life and that more time is needed for their degradation. […] We reason that this is due to RPLP1 and RPLP2 functioning as heterodimers such that a decrease of one protein increases the vulnerability of the other protein to degradation. Similar concomitant decrease of the proteins was reported by Campos et al. (17). Finally, the levels of two cellular proteins that are not targeted by the siRNAs, P54nrb and GAPDH, were unaffected.

For data set [6], the system named is HCoV-OC43. The experiment in a line: OC43 virion RNA, Branched DNA assay, infected HCT8 cells. The class given is cell-based, human coronavirus OC43. The note with it: for OC43 vRNA reduction siRNA and siGRP78: 10 nM siRNA along with 10 nM of siRNA targeting GRP78, HCT8 cells; for OC43 vRNA reduction: 10 nM siRNA, HCT8 cells. The method, then: The siRNAs were transfected in the HCT8 cells at a final concentration of 10 nM. A positive control for the inhibition of Coronavirus infection, Remdesivir (Rem), was used at 0.9 μM. The virion RNAs (vRNAs) were quantified using a Branched DNA assay specific for OC43 RNA.
The two siRNAs are those referred to by compound number (see Table 2) in the horizontal bar, along with siRNA targeting GRP78, siGRP78. A positive control for the inhibition of Coronavirus infection, Remdesivir (Rem), was used at 0.9 μM. The vRNAs were quantified using a Branched DNA assay specific for OC43 RNA.
The siRNAs listed in Table 2 were transfected into human colon epithelial HCT8 cells and the amount of OC43 virion produced was quantified. In these assays, the OC43 vRNA was quantified using a Branched DNA assay (QuantiGene gene expression assay: ThermoFisher). As a positive inhibitory control, the infected cells were treated with Remdesivir. […] Examples of the inhibition of OC43 vRNA are illustrated in FIG. 5A.
A combination of siRNAs targeting the host factor should more robustly reduce OC43 virion production. To illustrate this, HCT8 cells were transfected with 10 nM of siRNAs from Table 2 along with 10 nM of siRNA targeting GRP78. The virion RNAs produced were quantified using the Branched DNA assay. […] A combination of siRNAs targeting host factors GRP78, SRSF1, RPLP1 and RPLP2 can lead to significant reduction in the production of human Coronavirus virion RNA from infected cells.

On to “47 (UGGCCUUUUUGAUUAAAUUTTAAUUUAAUCAAAAAGGCCAAA; siRNA; Self-complementary hairpin strand, chemistry not given here, further chemistry not given here; listed as Homo sapiens) [compound 47]”, for which, in data set [1], the EC50 came to 0.07 nM. Besides, the CC50 in data set [2] was over 80 nM. In addition, the “HBeAg reduction HepG2.2.15 cells” value in data set [3] is 38 ± 5%. For the same substance, in data set [4], the “Target RNA reduction in HepG2.2.15 cells” value is given as 97 ± 3%. Besides, the “Target protein reduction in HepG2.2.15 cells” value (“Target protein reduction” below) in data set [5] was determined as 67 ± 5%. Also, in data set [6], the “OC43 vRNA reduction siRNA and siGRP78” value stood at 89 ± 2%.
In the case of “39 (AGAGGAGAAGAAAGAUGAGAAUUUUCUCAUCUUUCUUCUCCUCUUU; siRNA; Self-complementary hairpin strand, chemistry not given here, further chemistry not given here; listed as Homo sapiens) [compound 39]”, the EC50 in data set [1] was determined as 0.103 nM. For the same substance, the CC50 in data set [2] was over 80 nM. For the same substance, the “HBeAg reduction HepG2.2.15 cells” value in data set [3] is listed as 59 ± 4%. Also, the “Target RNA reduction in HepG2.2.15 cells” value in data set [4] is 96 ± 1%. Also, the “Target protein reduction” value in data set [5] is recorded as 48 ± 9%. For the same substance, in data set [6], the “OC43 vRNA reduction siRNA and siGRP78” value was 86 ± 6%; the “OC43 vRNA reduction” value turned out to be 91 ± 2%.
As to “48 (GCGCCAAGGACAUCAAGAATTUUCUUGAUGUCCUUGGCGCAA; siRNA; Self-complementary hairpin strand, chemistry not given here, further chemistry not given here; listed as Homo sapiens) [compound 48]”, the EC50 in data set [1] was 0.1 nM. Also, the CC50 in data set [2] was over 80 nM. In data set [3], the “HBeAg reduction HepG2.2.15 cells” value worked out at 32 ± 5%. Moreover, the “Target RNA reduction in HepG2.2.15 cells” value in data set [4] is listed as 97 ± 0%. The “Target protein reduction” value in data set [5] stood at 54 ± 8%. For the same substance, in data set [6], the “OC43 vRNA reduction siRNA and siGRP78” value turned out to be 88 ± 5%.
For the substance “42 (CCCAGCGCCAAGGACAUCAAGUUCUUGAUGUCCUUGGCGCUGGGUU; siRNA; Self-complementary hairpin strand, chemistry not given here, further chemistry not given here; listed as Homo sapiens) [compound 42]”, the EC50 in data set [1] came out at 0.385 nM. In data set [2], the CC50 was over 80 nM. Besides, the “HBeAg reduction HepG2.2.15 cells” value in data set [3] was 42 ± 2%. Also, the “Target RNA reduction in HepG2.2.15 cells” value in data set [4] amounted to 95 ± 1%. Moreover, the “Target protein reduction” value in data set [5] amounted to 50 ± 4%. Further, in data set [6], the “OC43 vRNA reduction siRNA and siGRP78” value is 85 ± 7%; the “OC43 vRNA reduction” value is reported as 57 ± 5%.
In the case of “34 (GCUGAAUGGAAAAAACAUUGATTAAUGUUUUUUCCAUUCAGCUCTT; siRNA; Self-complementary hairpin strand, chemistry not given here, further chemistry not given here; listed as Homo sapiens) [compound 34]”, the “HBsAg level, dose response” value in data set [1] (FIG. 5A) is “dose-dependent reduction of HBV S-antigen (HBsAg)”. Further, in data set [1], the EC50 amounted to 0.15 nM. In data set [2], the CC50 was over 80 nM. In addition, the “cytotoxicity / cell viability, siRNA library” value in data set [2] (up to the highest concentration tested, 80 nM) was “without affecting cell viability”. Moreover, the “HBeAg reduction HepG2.2.15 cells” value in data set [3] came out at 74 ± 4%. The “HBeAg level, siRNA library” value in data set [3] (HepG2.2.15 cells, Example A6, FIG. 5A) was “inhibited the levels of HBsAg and HBeAg”. In addition, the “Target RNA reduction in HepG2.2.15 cells” value in data set [4] was determined as 93 ± 1%. Further, the “Target protein reduction” value in data set [5] stood at 62.5 ± 3%. In data set [6], the “OC43 vRNA reduction siRNA and siGRP78” value was determined as 86 ± 5%; the “OC43 vRNA reduction” value is reported as 86 ± 3%.
For “36 (CCUUUUUGAUUAAAUUCCUGCTTAGGAAUUUAAUCAAAAAGGCCTT; siRNA; Self-complementary hairpin strand, chemistry not given here, further chemistry not given here; listed as Homo sapiens) [compound 36]”, the EC50 in data set [1] was determined as 9.2 nM. Moreover, the CC50 in data set [2] is over 80 nM. Further, the “HBeAg reduction HepG2.2.15 cells” value in data set [3] is listed as 26 ± 5%. For the same substance, the “Target RNA reduction in HepG2.2.15 cells” value in data set [4] was 94 ± 1%. Further, the “Target protein reduction” value in data set [5] is 57 ± 3%. Also, the “OC43 vRNA reduction siRNA and siGRP78” value in data set [6] came out at 87 ± 6%.
For “46 (GAAAGAUGAGAAGAAGGAGGAUUUCCUCCUUCUUCUCAUCUUUCUU; siRNA; Self-complementary hairpin strand, chemistry not given here, further chemistry not given here; listed as Homo sapiens) [compound 46]”, the EC50 in data set [1] was determined as 1.1 nM. In addition, the CC50 in data set [2] is over 80 nM. The “HBeAg reduction HepG2.2.15 cells” value in data set [3] turned out to be 44 ± 5%. Further, in data set [4], the “Target RNA reduction in HepG2.2.15 cells” value came out at 98 ± 1%. In addition, the “Target protein reduction” value in data set [5] worked out at 56 ± 8%. Moreover, the “OC43 vRNA reduction siRNA and siGRP78” value in data set [6] is 87 ± 4%.
On to “35 (GGGAUUUGGCCUUUUUGAUUATTAUCAAAAAGGCCAAAUCCCAUTT; siRNA; Self-complementary hairpin strand, chemistry not given here, further chemistry not given here; listed as Homo sapiens) [compound 35]”, for which the EC50 in data set [1] was found to be 0.01 nM. Moreover, the CC50 in data set [2] was over 80 nM. Further, in data set [3], the “HBeAg reduction HepG2.2.15 cells” value was 69 ± 3%. For the same substance, in data set [4], the “Target RNA reduction in HepG2.2.15 cells” value is given as 98 ± 0%. Besides, the “Target protein reduction” value in data set [5] came out at 78 ± 16%. Further, in data set [6], the “OC43 vRNA reduction siRNA and siGRP78” value stood at 96 ± 1%; the “OC43 vRNA reduction” value is 94 ± 6%.
Turning to “37 (CUGAAUGGAAAAAACAUUGAAUUUUCAAUGUUUUUUCCAUUCAGUU; siRNA; Self-complementary hairpin strand, chemistry not given here, further chemistry not given here; listed as Homo sapiens) [compound 37]”, the EC50 in data set [1] was 0.049 nM. Moreover, the CC50 in data set [2] was over 80 nM. The “HBeAg reduction HepG2.2.15 cells” value in data set [3] amounted to 53 ± 3%. Further, the “Target RNA reduction in HepG2.2.15 cells” value in data set [4] is given as 98 ± 1%. Further, the “Target protein reduction” value in data set [5] stood at 71 ± 10%. In data set [6], the “OC43 vRNA reduction siRNA and siGRP78” value is 88 ± 5%; the “OC43 vRNA reduction” value was 94 ± 2%.
On to “38 (AGUGUACCUGCUGGUGGGGCUUUAGCCCCACCAGCAGGUACACUUU; siRNA; Self-complementary hairpin strand, chemistry not given here, further chemistry not given here; listed as Homo sapiens) [compound 38]”, for which the EC50 in data set [1] worked out at 0.076 nM. For the same substance, the CC50 in data set [2] is over 80 nM. Besides, the “Target RNA reduction in HepG2.2.15 cells” value in data set [4] is recorded as 96 ± 1%. Further, the “Target protein reduction” value in data set [5] is reported as 55 ± 2%. Also, in data set [6], the “OC43 vRNA reduction siRNA and siGRP78” value turned out to be 61 ± 14%; the “OC43 vRNA reduction” value is reported as 39 ± 6%.
